Test results taken from US7829063B2, “Development of molecular imaging probes for carbonic anhydrase-IX using click chemistry” (Siemens Medical Solutions USA, Inc., priority 2007, dated 2010).

Columns and labels:
[1] = biological target: T1, CA-IX (Homo sapiens, UniProt Q16790); assay: Binding affinity (Kd) determination for CA-IX inhibitors, DNSA fluorescence competition assay, Scatchard plots; conditions: Table 3
T1 construct: His tag (C); purchased R&D Systems Inc. 2188-CA; host or cells: mouse myeloma cell line NS0
Protocol: General. […] The human red blood cells were obtained from Research Blood Components, LLC. All absorbance measurements were performed on a SPECTRA MAX M2 plate reader at 25° C. The LC/MS analyses were performed on an Agilent 1100 series LC/MSD (SL) using a 30×2.1 mm Zorbax C8 column with a Phenomenex C18 pre-column. Compound detection was accomplished by electrospray mass spectroscopy in positive selected ion mode (LC/MS-SIM). The elution solvents were acetonitrile and water, contained 0.05% TFA. Nuclear magnetic resonance (NMR) spectra were obtained on a Bruker AMX 300 MHz spectrometer or a Varian 400. 19F NMR spectra were recorded on a Bruker AMX 282.35 MHz or a Varian 400 spectrometer. The mass spectra were recorded on an Agilent 1100 series LC/MSD with electrospray mass spectroscopic detection. Flash column chromatography was performed on Merck silica gel (40-63 μm) using the solvent system indicated. The radiochemical and chemical purities were analyzed by RP-HPLC.
General Procedure of Binding Affinity (Ka) Determination for CA-IX Inhibitors
The assay was based on the observation that the only fluorescence signal detected at 460 nm upon excitation at 290 nm, an absorption […] for DNSA, was that of the DNSA.CA complex. […] The latter were developed for each test compound using mass balance for calculating the concentration of CA bound to DNSA [DNSA.CA], bound to the non-fluorescent sample [CA.Inh] and free CA [CA] in solution. The Kd values were determined from Scatchard plots using the equation below as described by Whitesides et al. [CA.Inh]/[CA]tot.[Inh]=K11^inh−K11^inh{[CA.Inh]+[CA.DNSA]}/([CA]tot)
The terms [CA.DNSA], [CA.Inh], and free CA were calculated using the mass balance based on the known values for the dissociation constant of CA.DNSA and the total concentration of CA in each reaction.

[2] = biological target: T1, CA-IX; assay: CA-IX combinatorial library screening, competitive fluorescence-based assay with dansylamide (DNSA); type: binding; conditions: Table 2, Libraries 4-7, sample concentrations 100 nM and 1000 nM, DNSA 200 μM, screening at 1 μM; for inhibition at 1 µM: 1 h, read-out: In Vitro Binding Assay (Library (Screening))
How it was run: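 Recombinant His-tagged CA-IX (NS0-expressed) in phosphate buffer pH 7.4 with test compound at 100 nM or 1000 nM; competitive displacement started with 200 μM dansylamide (stock concentration). After 1 h at 25 °C, fluorescence read at 460 nm (excitation 290 nm).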

NS(=O)(=O)c1nc2cc(OCc3cn(C(CCO)C(=O)NC(CSCc4cccc(OCCF)c4)C(=O)O)nn3)ccc2s1 (single isomer, unassigned) [VM2-107b]
Kd [1]: 5 nM

CC1(C)O[C@@H](CF)[C@H](COc2ccc(CC(C(=O)NC(Cc3ccc(C(F)(F)F)cc3)C(=O)O)n3cc(COc4ccc5nc(S(N)(=O)=O)sc5c4)nn3)cc2)O1 (stereo partly drawn) [BW-369-1B]
Kd [1]: 2.5 nM

NS(=O)(=O)c1nc2ccc(OCc3cn([C@@H](Cc4ccc(OCCF)cc4)C(=O)NCc4ccc(C(F)(F)F)cc4)nn3)cc2s1 [DHK2-119]
Kd [1]: 3.4 nM

NS(=O)(=O)c1nc2ccc(OCc3cn([C@@H](CCCCNC(=O)CCC(=O)O)C(=O)NCc4ccc(C(F)(F)F)cc4)nn3)cc2s1 [BD2-47, (S)-4-oxo-4-(6-oxo-5-(4-((2-sulfamoylbenzo[d]thiazol-6-yloxy)methyl)-1H-1,2,3-triazol-1-yl)-6-(4-(trifluoromethyl)benzylamino)hexylamino)butanoic acid]
Kd [1]: 20 nM

NS(=O)(=O)c1nc2ccc(OCc3cn(Cc4ccc(C(=O)O)cc4)nn3)cc2s1 [DHK159]
Kd [1]: 14.1 nM

NS(=O)(=O)c1nc2ccc(OCc3cn(CC(=O)N(CC(=O)O)Cc4ccc(C(F)(F)F)cc4)nn3)cc2s1 [BD3-36, 2-(2-(4-((2-sulfamoylbenzo[d]thiazol-6-yloxy)methyl)-1H-1,2,3-triazol-1-yl)-N-(4-(trifluoromethyl)benzyl)acetamido)acetic acid]
Kd [1]: 14 nM

NS(=O)(=O)c1nc2ccc(OCc3cn([C@@H](Cc4ccccc4)C(=O)NCc4ccc(C(F)(F)F)cc4)nn3)cc2s1 [DHK2-51, (S)-3-phenyl-2-(4-((2-sulfamoylbenzo[d]thiazol-6-yloxy)methyl)-1H-1,2,3-triazol-1-yl)-N-(4-(trifluoromethyl)benzyl)propanamide]
Kd [1]: 2.5 nM

N#Cc1ccc(C[C@H](CC(=O)[C@H](Cc2ccc(OCCF)cc2)n2cc(COc3ccc4nc(S(N)(=O)=O)sc4c3)nn2)C(=O)O)cc1 [DHK2-187]
Kd [1]: 17 nM

NS(=O)(=O)c1nc2cc(OCc3cn(CC(=O)N[C@@H](CSCc4cccc(OCCF)c4)C(=O)O)nn3)ccc2s1 [VM2-41]
Kd [1]: 5 nM

CCOC(=O)C1CCN(C(=O)[C@H](C(C)C)n2cc(COc3ccc4nc(S(N)(=O)=O)sc4c3)nn2)CC1 [DHK2-41]
Kd [1]: 5 nM

NS(=O)(=O)c1nc2ccc(OCc3cn([C@@H](Cc4ccc(OCCF)cc4)C(=O)N[C@@H](Cc4ccc(C(F)(F)F)cc4)C(=O)O)nn3)cc2s1 [DHK2-134, (S)-2-((S)-3-(4-(2-fluoroethoxy)phenyl)-2-(4-((2-sulfamoylbenzo[d]thiazol-6-yloxy)methyl)-1H-1,2,3-triazol-1-yl)propanamido)-3-(4-(trifluoromethyl)phenyl)propanoic acid]
Kd [1]: 0.5 nM

CC(C)[C@H](C(=O)N[C@H](Cc1ccc(OCC(O)CF)cc1)C(=O)O)n1cc(COc2ccc3nc(S(N)(=O)=O)sc3c2)nn1 (single isomer, unassigned) [VM4047b]
Kd [1]: 11 nM

NS(=O)(=O)c1nc2cc(OCc3cn(C(CCO)C(=O)NC(CSCc4cccc(OCCF)c4)C(=O)O)nn3)ccc2s1 (single isomer, unassigned) [VM2-107a]
Kd [1]: 10 nM

COCCOCCOCCOCCC(=O)NCCOc1cccc(CSC[C@@H](NC(=O)Cn2cc(COc3ccc4nc(S(N)(=O)=O)sc4c3)nn2)C(=O)O)c1 [DHK3-48]
Kd [1]: 10 nM

COC(=O)C[C@H](NC(=O)[C@H](C(C)C)n1cc(COc2ccc3nc(S(N)(=O)=O)sc3c2)nn1)c1ccc(C(F)(F)F)cc1 [DHK2-130]
Kd [1]: 5 nM

NS(=O)(=O)c1nc2ccc(OCc3cn([C@@H](Cc4ccc(OCCF)cc4)C(=O)N[C@H](Cc4ccc(C(F)(F)F)cc4)C(=O)O)nn3)cc2s1 [DHK2-161]
Kd [1]: 5 nM

CC(C)[C@@H](C(=O)N[C@@H](CC(=O)O)c1ccc(C(F)(F)F)cc1)n1cc(COc2ccc3nc(S(N)(=O)=O)sc3c2)nn1 [DHK2-133]
Kd [1]: 1.7 nM

NS(=O)(=O)c1nc2ccc(OCc3cn([C@@H](Cc4ccc(OCCF)cc4)C(=O)N4CCC(C(=O)O)CC4)nn3)cc2s1 [DHK2-120]
Kd [1]: 5 nM

CC(C)[C@@H](C(=O)N[C@@H](Cc1ccc(C(F)(F)F)cc1)C(=O)O)n1cc(COc2ccc3nc(S(N)(=O)=O)sc3c2)nn1 [DHK2-132]
Kd [1]: 0.5 nM

C[N+](C)(C)C[C@H](O)CC(=O)NCCOc1cccc(COCC(NC(=O)Cn2cc(COc3ccc4nc(S(N)(=O)=O)sc4c3)nn2)C(=O)O)c1 (stereo partly drawn) [DHK3-156]
Kd [1]: 10 nM

NS(=O)(=O)c1nc2ccc(OCc3cn([C@@H](Cc4ccc(OCCF)cc4)C(=O)N[C@@H](CC(=O)O)c4ccccc4)nn3)cc2s1 [DHK2-135]
Kd [1]: 5 nM

NS(=O)(=O)c1nc2ccc(OCc3cn(CC(=O)NC(COCc4cccc(OCCNC(=O)CCC(=O)O)c4)C(=O)O)nn3)cc2s1 (stereo not drawn) [DHK3-154]
Kd [1]: 25 nM

NS(=O)(=O)c1nc2ccc(OCc3cn([C@@H](Cc4ccccc4)C(=O)N4CCC(C(=O)O)CC4)nn3)cc2s1 [DHK2-94]
Kd [1]: 10 nM

Cc1onc(-c2ccccc2)c1CNC(=O)[C@H](Cc1ccccc1)n1cc(COc2ccc3nc(S(N)(=O)=O)sc3c2)nn1 [DHK2-66]
Kd [1]: 2 nM

NS(=O)(=O)c1nc2ccc(OCc3cn(CC(=O)N[C@H](CSCc4cccc(OCCOCCOCCF)c4)C(=O)O)nn3)cc2s1 [BW2-45, (S)-3-(3-(2-(2-(2-fluoroethoxy)ethoxy)ethoxy)benzylthio)-2-(2-(4-((2-sulfamoylbenzo[d]thiazol-6-yloxy)methyl)-1H-1,2,3-triazol-1-yl)acetamido) propanoic acid]
Kd [1]: 5 nM

NS(=O)(=O)c1nc2ccc(OCc3cn(CC(=O)N[C@@H](Cc4ccc(OCC(O)CF)cc4)C(=O)O)nn3)cc2s1 (stereo partly drawn) [VM4041, (S)-3-(4-(3-fluoro-2-hydroxypropoxy)phenyl)-2-(2-(4-((2-sulfamoylbenzo[d]thiazol-6-yloxy)methyl)-1H-1,2,3-triazol-1-yl)acetamido)propanoic acid]
Kd [1]: 5 nM

CC(C)[C@@H](C(=O)NCC1COc2ccccc2O1)n1cc(COc2ccc3nc(S(N)(=O)=O)sc3c2)nn1 (stereo partly drawn) [DHK2-44]
Kd [1]: 5 nM

CC(C)C(C(=O)NC(COCc1cccc(OCCO)c1)C(=O)O)n1cc(COc2ccc3nc(S(N)(=O)=O)sc3c2)nn1 (single isomer, unassigned) [VM3-165A]
Kd [1]: 5 nM

COC(=O)[C@@H](CSCc1cccc(O)c1)NC(=O)[C@H](CCO)n1cc(COc2ccc3nc(S(N)(=O)=O)sc3c2)nn1 [VM2-93]
Kd [1]: 10 nM

COC(=O)[C@H](Cc1ccc(C(F)(F)F)cc1)NC(=O)[C@H](Cc1ccc(OCCF)cc1)n1cc(COc2ccc3nc(S(N)(=O)=O)sc3c2)nn1 [DHK2-127, (S)-methyl 2-((S)-3-(4-(2-fluoroethoxy)phenyl)-2-(4-((2-sulfamoylbenzo[d]thiazol-6-yloxy)methyl)-1H-1,2,3-triazol-1-yl)propanamido)-3-(4-(trifluoromethyl)phenyl)propanoate]
Kd [1]: 2 nM

CC(C)C(C(=O)NC(COCc1cccc(OCCO)c1)C(=O)O)n1cc(COc2ccc3nc(S(N)(=O)=O)sc3c2)nn1 (single isomer, unassigned) [VM3-165B]
Kd [1]: 11 nM

NS(=O)(=O)c1nc2ccc(OCc3cn([C@@H](Cc4ccc(OCCF)cc4)C(=O)NCc4ccc(OC(F)(F)F)cc4)nn3)cc2s1 [DHK2-176]
Kd [1]: 5 nM

NS(=O)(=O)c1nc2ccc(OCc3cn([C@@H](Cc4ccc(OCCF)cc4)C(=O)NC(Cc4cccc(C(F)(F)F)c4)C(=O)O)nn3)cc2s1 (stereo partly drawn) [DHK2-181]
Kd [1]: 2 nM

NCCOc1cccc(COCC(NC(=O)Cn2cc(COc3ccc4nc(S(N)(=O)=O)sc4c3)nn2)C(=O)O)c1 (stereo not drawn) [DHK3-149]
Kd [1]: 10 nM

NS(=O)(=O)c1nc2ccc(OCc3cn(CC(=O)N[C@@H](CSCc4ccccc4)C(=O)O)nn3)cc2s1 [DHK161]
Kd [1]: 10 nM

Cc1onc(-c2ccccc2)c1CNC(=O)[C@H](Cc1ccccc1)n1cc(-c2ccc(S(N)(=O)=O)cc2)nn1 [DHK-2-15]
inhibition at 1 µM [2]: < 40%

COC(=O)C(C)NC(=O)[C@H](Cc1ccccc1)n1cc(COc2ccc3nc(S(N)(=O)=O)sc3c2)nn1 (stereo partly drawn) [DHK-2-61]
In Vitro Binding Assay (Library Screening) [2]: √

CC(C)[C@@H](C(=O)N1CCC(N2CCCC2)CC1)n1cc(COc2ccc3nc(S(N)(=O)=O)sc3c2)nn1 [DHK-2-45]
inhibition at 1 µM [2]: < 40%

CCOC(=O)[C@@H](Cc1ccccc1)NC(=O)[C@H](Cc1ccccc1)n1cc(-c2ccc(S(N)(=O)=O)cc2)nn1 [DHK-2-8]
inhibition at 1 µM [2]: < 40%
